Measured values published in US20170283458A1, “COLLAGEN-BINDING SYNTHETIC PEPTIDOGLYCANS FOR WOUND HEALING” (Symic Biomedical, Inc., priority 2009, published 2017).
Ends that are not written are not given here.

Experiments:
collagen type I gels = target: T1, collagen type I gels (Bos taurus, UniProt P02453+P02465); test: Viscoelastic characterization of collagen type I gels (rheometer); type: biochemical; details: varying ratios of collagen to additive, vs untreated collagen
T1 construct: purchased Inamed, Freemont, Calif; Nutragen
T1 sequence (P02453 162-1217 limits assumed): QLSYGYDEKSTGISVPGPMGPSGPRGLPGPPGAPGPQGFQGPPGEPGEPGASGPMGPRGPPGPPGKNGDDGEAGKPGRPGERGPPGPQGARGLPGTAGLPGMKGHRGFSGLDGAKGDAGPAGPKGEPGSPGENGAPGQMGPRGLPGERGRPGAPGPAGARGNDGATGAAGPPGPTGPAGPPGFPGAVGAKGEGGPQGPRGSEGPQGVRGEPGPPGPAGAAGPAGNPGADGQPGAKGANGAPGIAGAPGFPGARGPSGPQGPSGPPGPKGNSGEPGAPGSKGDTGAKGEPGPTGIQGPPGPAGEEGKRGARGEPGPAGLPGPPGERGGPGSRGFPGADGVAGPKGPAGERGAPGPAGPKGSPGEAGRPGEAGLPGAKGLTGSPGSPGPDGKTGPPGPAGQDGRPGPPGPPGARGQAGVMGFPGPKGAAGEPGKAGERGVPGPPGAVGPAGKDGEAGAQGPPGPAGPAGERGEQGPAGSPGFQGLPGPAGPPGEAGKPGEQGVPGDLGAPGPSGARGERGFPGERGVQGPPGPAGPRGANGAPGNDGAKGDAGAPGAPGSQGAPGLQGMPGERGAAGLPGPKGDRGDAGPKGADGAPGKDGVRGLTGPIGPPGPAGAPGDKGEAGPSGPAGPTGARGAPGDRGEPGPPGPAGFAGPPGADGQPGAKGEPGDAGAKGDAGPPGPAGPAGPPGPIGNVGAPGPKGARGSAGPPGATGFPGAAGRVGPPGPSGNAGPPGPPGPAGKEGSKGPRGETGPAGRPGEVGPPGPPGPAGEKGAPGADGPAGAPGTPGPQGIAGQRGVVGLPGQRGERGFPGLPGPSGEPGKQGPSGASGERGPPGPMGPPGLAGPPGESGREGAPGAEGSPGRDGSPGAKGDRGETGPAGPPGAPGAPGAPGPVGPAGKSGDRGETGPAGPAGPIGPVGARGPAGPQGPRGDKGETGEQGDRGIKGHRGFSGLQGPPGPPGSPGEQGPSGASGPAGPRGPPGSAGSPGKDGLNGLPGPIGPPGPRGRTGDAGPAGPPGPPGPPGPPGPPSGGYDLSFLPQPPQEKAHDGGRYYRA
T1 sequence (P02465 80-1117 limits assumed): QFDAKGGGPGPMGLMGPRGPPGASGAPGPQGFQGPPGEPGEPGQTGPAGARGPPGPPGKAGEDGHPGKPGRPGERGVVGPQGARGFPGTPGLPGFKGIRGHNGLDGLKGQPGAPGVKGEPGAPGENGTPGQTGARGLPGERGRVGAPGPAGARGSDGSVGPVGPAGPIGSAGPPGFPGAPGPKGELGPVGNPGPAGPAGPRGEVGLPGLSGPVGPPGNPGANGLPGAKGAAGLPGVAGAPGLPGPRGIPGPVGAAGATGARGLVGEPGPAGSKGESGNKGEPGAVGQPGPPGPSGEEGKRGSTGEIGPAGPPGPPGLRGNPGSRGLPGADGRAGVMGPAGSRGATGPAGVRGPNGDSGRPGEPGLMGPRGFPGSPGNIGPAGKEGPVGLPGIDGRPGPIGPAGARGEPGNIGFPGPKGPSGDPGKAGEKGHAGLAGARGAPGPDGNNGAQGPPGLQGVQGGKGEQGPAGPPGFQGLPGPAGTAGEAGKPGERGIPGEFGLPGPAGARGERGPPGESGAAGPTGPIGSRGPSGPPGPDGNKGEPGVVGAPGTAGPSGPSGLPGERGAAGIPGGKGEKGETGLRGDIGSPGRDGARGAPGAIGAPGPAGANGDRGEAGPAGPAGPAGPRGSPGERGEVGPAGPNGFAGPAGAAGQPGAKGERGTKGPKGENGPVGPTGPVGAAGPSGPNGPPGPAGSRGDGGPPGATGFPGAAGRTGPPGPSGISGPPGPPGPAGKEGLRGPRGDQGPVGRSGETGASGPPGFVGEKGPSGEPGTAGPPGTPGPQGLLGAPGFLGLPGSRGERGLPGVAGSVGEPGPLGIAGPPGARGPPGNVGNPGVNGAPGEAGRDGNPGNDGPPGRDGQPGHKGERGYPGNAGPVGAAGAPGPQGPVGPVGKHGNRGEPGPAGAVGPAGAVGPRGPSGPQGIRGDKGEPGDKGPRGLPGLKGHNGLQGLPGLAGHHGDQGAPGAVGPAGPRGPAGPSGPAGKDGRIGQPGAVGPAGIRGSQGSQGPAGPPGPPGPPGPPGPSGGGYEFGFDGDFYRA
Experimental: Gels were made with Nutragen collagen (Inamed, Freemont, Calif.) at a final concentration of 4 mg/mL collagen. Nutragen stock is 6.4 mg/mL in 10 mM HCl. Gel preparation was performed on ice, and fresh samples were made before each test. The collagen solution was adjusted to physiologic pH and salt concentration, by adding appropriate volumes of 10×PBS (phosphate buffered saline), 1×PBS, and 1M NaOH. For most experiments, samples of DS, decorin, DS-SILY, or DS-Dc13 were added at a 10:1 collagen:treatment molar ratio by a final 1×PBS addition (equal volumes across treatments) in which the test samples were dissolved at appropriate concentrations. In this way, samples are constantly kept at pH 7.4 and physiologic salt concentration. Collagen-alone samples received a 1×PBS addition with no sample dissolved. Fibrillogenesis will be induced by incubating neutralized collagen solutions at 37° C. overnight in a humidified chamber to avoid dehydration. Gel solutions with collagen:treatment molar ratios of other than 10:1 were prepared similarly. Collagen gels were prepared as described in EXAMPLE 16 and prior to heating, 200 μL of each treatment were pipetted onto the wettable surface of hydrophobically printed slides (Tekdon). The PTFE printing restricted gels to the 20 mm diameter wettable region. Gels were formed in a humidified incubator at 37° C. overnight prior to mechanical testing. […]

collagen I = target: T2, collagen I (Bos taurus, UniProt P02453+P02465); test: Cryo-SEM measurements on collagen I, fibril diameter; type: biochemical; details: 4 mg/mL collagen, 10:1 collagen:treatment, cryo-SEM 20,000×
T2 construct: purchased Inamed, Freemont, Calif; Nutragen
T2 sequence (P02453 162-1217 limits assumed): as the sequence (P02453 162-1217 limits assumed) above
T2 sequence (P02465 80-1117 limits assumed): as the sequence (P02465 80-1117 limits assumed) above
Experimental: (§1) Gels were made with Nutragen collagen (Inamed, Freemont, Calif.) at a final concentration of 4 mg/mL collagen. Nutragen stock is 6.4 mg/mL in 10 mM HCl. Gel preparation was performed on ice, and fresh samples were made before each test. The collagen solution was adjusted to physiologic pH and salt concentration, by adding appropriate volumes of 10×PBS (phosphate buffered saline), 1×PBS, and 1M NaOH. For most experiments, samples of DS, decorin, DS-SILY, or DS-Dc13 were added at a 10:1 collagen:treatment molar ratio by a final 1×PBS addition (equal volumes across treatments) in which the test samples were dissolved at appropriate concentrations. In this way, samples are constantly kept at pH 7.4 and physiologic salt concentration. Collagen-alone samples received a 1×PBS addition with no sample dissolved. Fibrillogenesis will be induced by incubating neutralized collagen solutions at 37° C. overnight in a humidified chamber to avoid dehydration. Gel solutions with collagen:treatment molar ratios of other than 10:1 were prepared similarly.
Gels for cryo-SEM were formed, as in EXAMPLE 16, directly on the SEM stage and incubated at 37° C. overnight. The stages were then secured in a cryo-holder and plunged into liquid nitrogen slush. Samples were then transferred to a Gatan Alto 2500 pre-chamber cooled to −170° C. under vacuum. A free-break surface was created with a cooled scalpel, and each sample evaporated under sublimation conditions for 20 min. The sample was coated by platinum sputter coating for 120 s. Samples were transferred to the cryo-stage at −130° C. and regions with similar orientation were imaged for comparison across treatments. Analysis of the images was performed to determine the fibril diameter distribution, presented in histograms adjacent the corresponding image in FIG. 14, and average fibril diameter, FIG. 17 an 18;. Fibril diameter was calculated using ImageJ software (NIH) measuring individual fibrils by hand (drawing a line across fibrils and measuring its length after properly setting the scale). At least 45 independent fibril measurement were recorded for average fibril diameter calculations.

collagen gels = target: T3, collagen gels (Bos taurus, UniProt P02453+P02465); test: Cryo-SEM measurement of fibril density; type: biochemical; details: 10:1 molar ratio, cryo-SEM 10,000×
T3 construct: purchased Inamed, Freemont, Calif; Nutragen
T3 sequence (P02453 162-1217 limits assumed): as the sequence (P02453 162-1217 limits assumed) above
T3 sequence (P02465 80-1117 limits assumed): as the sequence (P02465 80-1117 limits assumed) above
Experimental: Collagen gels were formed in the presence of each additive at a 10:1 molar ratio, as described in EXAMPLE 16, directly on the SEM stage, processed, and imaged as described. Images at 10,000× were analyzed for fibril density calculations. Images were converted to 8-bit black and white, and threshold values for each image were determined using ImageJ software (NIH). The threshold was defined as the value where all visible fibrils are white, and all void space is black. The ratio of white to black area was calculated using MatLab software. All measurements were taken in triplicate and thresholds were determined by an observer blinded to the treatment.

collagen [1] = target: T4, collagen (Bos taurus, UniProt P02453+P02465); test: Fibrillogenesis turbidity assay (absorbance at 313 nm); type: biochemical
T4 construct: purchased Inamed, Freemont, Calif; Nutragen
T4 sequence (P02453 162-1217 limits assumed): as the sequence (P02453 162-1217 limits assumed) above
T4 sequence (P02465 80-1117 limits assumed): as the sequence (P02465 80-1117 limits assumed) above
Experimental: as §1
Collagen fibrillogenesis was monitored by measuring turbidity related absorbance at 313 nm providing information on rate of fibrillogenesis and fibril diameter. Gel solutions were prepared as described in EXAMPLE 16 (4 mg/mL collagen, 10:1 collagen:treatment, unless otherwise indicated) and 50 uL/well were added at 4° C. to a 384-well plate. The plate was kept at 4° C. for 4 hours before initiating fibril formation. A SpectraMax M5 at 37° C. was used to measure absorbance at 313 nm at 30 s intervals for 6 hours.
A fibrillogenesis assay as described for DS-SILY, EXAMPLE 19, performed with the conjugate DS-Dc13.

HCA SMCs = test: Measurement of elastin (Fastin assay) in cell-seeded collagen gels; type: cell-based, human; details: gels cultured for 10 days
Experimental: Collagen gels seeded with HCA SMCs were prepared as described in EXAMPLE 30. Differentiation medium was changed every three days and gels were cultured for 10 days. Collagen gels containing no cells were used as a control. Gels were rinsed in 1×PBS overnight to remove serum protein, and gels were tested for elastin content using the Fastin elastin assay per manufacturers protocol (Biocolor, County […].). Briefly, gels were solubilized in 0.25 M oxalic acid by incubating at 100° C. for 1 hr. Elastin was precipitated and samples were then centrifuged at 11,000×g for 10 min. The solubilized collagen supernatant was removed and the elastin pellet was stained by Fastin Dye Reagent for 90 min at room temperature. Samples were centrifuged at 11,000×g for 10 min and unbound dye in the supernatant was removed. Dye from the elastin pellets was released by the Fastin Dye Dissociation Reagent, and 100 μL samples were transferred to a 96-well plate (Costar). Absorbance was measured at 513 nm, and elastin content was calculated from an α-elastin standard curve.

[2] = test system: Human coronary artery smooth muscle cells (HCA SMC); test: Gel compaction by smooth muscle cells in collagen gels; type: cell-based
Experimental: Human coronary artery smooth muscle cells (HCA SMC) (Cascade Biologics) were cultured in growth medium (Medium 231 supplemented with smooth muscle growth factor). Cells from passage 3 were used for all experiments. Differentiation medium (Medium 231 supplemented with 1% FBS and 1× pen/strep) was used for all experiments unless otherwise noted.
Collagen gels were prepared with each additive as described with the exception that the 1×PBS example addition was omitted to accommodate the addition of cells in media. After incubating on ice for 30 min, HCA SMCs in differentiation medium were added to the gel solutions to a final concentration of 1×10^6 cells/mL. Gels were formed in quadruplicate in 48-well non-tissue culture treated plates (Costar) for 6 hrs before adding 500 μL/well differentiation medium. Gels were freed from the well edges after 24 hrs. Medium was changed every 2-3 days and images for compaction were taken at the same time points using a Gel Doc System (Bio-Rad). The cross-sectional area of circular gels correlating to degree of compaction was determined using ImageJ software (NIH). Gels containing no cells were used as a negative control and cells in collagen gels absent additive were used as a positive control. […] By day 10 all gels had compacted to approximately 10% of the original gel area, and differences between additives were small.

[3] = test system: Human aortic smooth muscle cells; test: Collagen remodeling: hydroxyproline content in medium of cell-seeded collagen gels; type: cell-based; details: vs collagen alone; cultures up to 30 days
Experimental: Following a method by Grassl, et al. (Grassl, et al., Journal of Biomedical Materials Research 2002, 60, (4), 607-612), which is herein incorporated in its entirety, collagen gels with or without synthetic PG mimics were formed as described in EXAMPLE 16. Human aortic smooth muscle cells (Cascade Biologics, Portland, Oreg.) were seeded within collagen gels by adding 4×10^6 cells/mL to the neutralized collagen solution prior to incubation. The cell-collagen solutions were pipetted into an 8-well Lab-Tek chamber slide and incubated in a humidified 37° C. and 5% CO2 incubator. After gelation, the cell-collagen gels will be covered with 1 mL Medium 231 as prescribed by Cascade. Every 3-4 days, the medium was removed from the samples and the hydroxyproline content measured by a standard hydroxyproline assay (Reddy, 1996).
To measure degraded collagen in the supernatant medium, the sample was lyophilized, the sample hydrolyzed in 2M NaOH at 120° C. for 20 min. After cooling, free hydroxyproline was oxidized by adding chloramine-T (Sigma) and reacting for 25 min at room temperature. Ehrlich's aldehyde reagent (Sigma) was added and allowed to react for 20 min at 65° C. and followed by reading the absorbance at 550 nm on an M-5 spectrophotometer (Molecular Devices). […] Cultures were incubated for up to 30 days and three samples of each treatment measured. […]

collagen [4] = test: SILY binding to collagen (Biacore surface plasmon resonance)
Experimental: Biacore studies were performed on a Biacore 2000 using a CM-3 chip (Biacore, Inc., Piscataway, N.J.). The CM-3 chip is coated with covalently attached carboxymethylated dextran, which allows for attachment of the substrate collagen via free amine groups. Flow cells (FCs) 1 and 2 were used, with FC-1 as the reference cell and FC-2 as the collagen immobilized cell. Each FC was activated with EDC-NHS, and 1500RU of collagen was immobilized on FC-2 by flowing 1mg/mL collagen in sodium acetate, pH 4, buffer at 5 μL/min for 10 min. Unreacted NHS-ester sites were capped with ethanolamine; the control FC-1 was activated and capped with ethanolamin.
To determine peptide binding affinity, SILY was dissolved in 1× HBS-EP buffer (Biacore) at varying concentrations from 100 uM to 1.5 μm in 2-fold dilutions. […] The first 10 injections were buffer injections, which help to prime the system, followed by randomized sample injections, run in triplicate. Analysis was performed using BIAevaluation software (Biacore).

Human dermal fibroblasts = test: TGF-β1 production by human dermal fibroblasts (ELISA); type: cell-based; details: 1.4 μM treatment, 48 hours
Experimental: Human dermal fibroblasts (Cascade Biologics) were seeded onto 96-well tissue culture polystyrene plates at a seeding density of 1.83×10^3 cells/well. Cells adhered overnight and cell medium was aspirated. 100 μL/well of cell medium containing a final concentration of 1.4 μM treatment delivered from a concentrated solution of treatment in 1×PBS was added to the cells. After 48 hours, cell medium was removed and frozen at −80 C until further testing. TGF-β1 was measured by ELISA using a kit and protocol from R&D Systems.

| Substance | stiffness of collagen gel (storage modulus G') (collagen type I gels) | average fibril diameter (collagen I) | fibril density (ratio of fibril containing area to void space) (collagen gels) | rate of fibrillogenesis (collagen [1]; 4 mg/mL collagen, 10:1 collagen:treatment unless otherwise indicated) | fibrillogenesis and overall absorbance (collagen [1]; 1:1 or 10:1 collagen to treatment, FIG. 12) | elastin production (HCA SMCs) | gel compaction at early time points ([2]; Days 3 and 5) | gel compaction ([2]; day 10) | collagen degradation measured by hydroxyproline content in cell medium [3] | reversibility of binding to collagen (collagen [4]; association/disassociation curves, FIG. 2) | Kd (collagen [4]; calculated from the on-off binding kinetics, collagen immobilized on CM-3 chip) | TGF-β1 in cell medium (Human dermal fibroblasts) |
| --- | --- | --- | --- | --- | --- | --- | --- | --- | --- | --- | --- | --- |
| DS-Dc13: dermatan sulfate conjugated via PDPH to Dc13 peptide, molar ratio about 1 (SYIRIADTNITGC; also: dermatan sulfate conjugate via PDPH, molar ratio about 1, site not given here) | increase the stiffness of the resulting collagen gel over untreated collagen | significant decrease in average fibril diameter | not significant compared to collagen | decrease the rate of fibrillogenesis | delays fibrillogenesis and decreases overall absorbance in a dose-dependent manner | significantly decreased elastin production over untreated collagen | significantly compacted more than gels made of collagen alone or collagen with dermatan sulfate | slightly, but significantly, less compact than gels treated with decorin or collagen | – | – | – | – |
| RRANAALKAGELYKSILYGC | – | significant decrease in average fibril diameter | significantly greater fibril density | – | – | – | – | – | greater collagen degradation compared to collagen alone | binds reversibly with collagen | 1.2 µM | significantly decreased TGF-β1 |
| dermatan sulfate [reference compound] | increase the stiffness of the resulting collagen gel over untreated collagen | – | – | – | – | significantly decreased elastin production over untreated collagen | – | – | – | – | – | significantly decreased TGF-β1 |
